# From PMC4160109 (Clinical cancer research : an official journal of the …, 2014)
# Experiments:
# advanced solid tumors = settings: cited from earlier work
# patients = settings: cited from earlier work
# [1] = tested on: patients with advanced solid malignancies; settings: in vivo
# rats = assay: Preclinical severely toxic dose in 10% of animals, rats; format: in vivo, rat; settings: twice daily
# [2] = tested on: advanced solid malignancies; assay: Phase I antitumor activity; format: in vivo, human; settings: for median time on study: all patients
# dogs = assay: Preclinical severely toxic dose in 10% of animals, dogs; format: in vivo, dog
# [3] = Plasma PK of oral rigosertib in phase I patients; format: in vivo, human; settings: for CI7F: plasma, mean ± SD
# [4] = Urine PK of oral rigosertib in phase I patients; format: in vivo, human
structure (smiles),measurement,setting,value
C=CCN(/C=C1/C(=O)O[C@H](COC)[C@@]2(C)C1=C(O)C(=O)C1=C2[C@H](OC(C)=O)C[C@]2(C)C(=O)CC[C@@H]12)CC=C [PX-866],phase I RR,advanced solid tumors,0%
same,hyperglycemia,patients,do not cause hyperglycemia
CC[C@@H]1C(=O)N(C)c2cnc(Nc3ccc(C(=O)NC4CCN(C)CC4)cc3OC)nc2N1C1CCCC1 [BI-2536],phase I CBR,advanced solid tumors,32%
same,phase I PR,advanced solid tumors,0%
same,phase I stable disease,advanced solid tumors,32%
COc1ccc(Cl)c(Nc2nc3ccccc3nc2NS(=O)(=O)c2cccc(NC(=O)C(C)(C)N)c2)c1 [XL147],hyperglycemia,patients,do not cause hyperglycemia
Nc1cc(C(F)(F)F)c(-c2cc(N3CCOCC3)nc(N3CCOCC3)n2)cn1 [BKM120],phase I RR,advanced solid tumors,2.8%
"COc1cc(OC)c(/C=C/S(=O)(=O)Cc2ccc(OC)c(NCC(=O)O)c2)c(OC)c1 [rigosertib, sodium (E)-2-{2-methoxy-5-[(2′,4′ ,6′-trimethoxys-tyrylsulfonyl)methyl]phenylamino}acetate]","Fatigue, treatment-related AE (patients)",[1]; human,1
same,"Hematuria, treatment-related AE (patients)",[1]; human,2
same,"Pelvic pain, treatment-related AE (patients)",[1]; human,1
same,median time to onset of urinary symptoms,[1]; human,4 weeks
same,patients experiencing serious AEs,[1]; human,13
same,patients with doses held for toxicity,[1]; human,14
same,patients with doses reduced for toxicity,[1]; human,13
same,patients with grade 2 or 3 urinary symptoms,[1]; human,15
same,patients with serious AE considered possibly drug-related,[1]; human,1
same,time to resolution of urinary symptoms after drug discontinuation,[1]; human,≤ 14 days
same,Patients with a DLT,"[1]; human, 21 days",2
same,patients with a DLT,"[1]; human, 21 days",1
same,recommended phase II dose (RP2D),"[1]; human, po, 21 days",560 mg
same,patients with grade 3 nonhematologic toxicity,[1],Seven
same,tolerability of dose level,[1],considered intolerable
same,Dose-limiting toxicities,[1]; po,hematuria and dysuria
same,severely toxic dose in 10% of animals,rats,75 mg/kg
same,overall response rate (RR),"[2]; 2/46 evaluable patients, all dose levels",4.3%
same,duration of stable disease,"[2]; 8 patients with stable disease for 12 or more weeks, range",12–36 weeks
same,clinical benefit rate (CBR = CR + PR + stable disease),"[2]; 10/46 evaluable patients, stable disease ≥ 12 weeks",21.7%
same,patients with stable disease for ≥ 12 weeks,[2]; all dose levels,8
same,median time on study,[2],2 cycles
same,median time on study,"[2]; range, 1–101+",6 weeks
same,best response,"[2]; one patient, platinum-refractory HPV-positive HNSCC, 560 mg twice daily",partial response
same,time on study,"[2]; patient with CR, HPV-negative HNSCC, 280 mg twice daily",≥ 101 weeks
same,time on study,"[2]; patient with PR, HPV-positive HNSCC, 560 mg twice daily",50 weeks
same,tumor size decrease from its maximum,"[2]; patient with PR, HPV-positive HNSCC, 560 mg twice daily, cycle 5",40%
same,human equivalent of severely toxic dose in 10% of dogs and rats,dogs; 60 kg human,12.2 mg/kg
same,human equivalent of severely toxic dose in 10% of dogs and rats,dogs; 60 kg human with a safety factor of 10,73 mg
same,severely toxic dose in 10% of animals,"dogs; dogs, twice daily",75 mg/kg
same,"plasma pharmacokinetics, dose dependence",[3]; oral 70-700 mg twice daily,linear and dose proportional
same,CI7F,"[3]; 70 mg twice daily oral, Day 1 cycle 1, n = 3",71.54 ±42.87 I7h
same,CI7F,"[3]; 140 mg twice daily oral, Day 1 cycle 1, n = 4",171.29 ± 155.74 I7h
same,CI7F,"[3]; 140 mg twice daily oral, Day 21 cycle 1, n = 4",55.64 ± 36.62 I7h
same,CI7F,"[3]; 280 mg twice daily oral, Day 1 cycle 1, n = 5",122.84 ± 123.67 I7h
same,CI7F,"[3]; 280 mg twice daily oral, Day 21 cycle 1, n = 3",127.45 ±66.13 I7h
same,CI7F,"[3]; 560 mg twice daily oral, Day 1 cycle 1, n = 32",93.28 ± 58.24 I7h
same,CI7F,"[3]; 560 mg twice daily oral, Day 21 cycle 1, n = 24",116.33 ±56.32 I7h
same,CI7F,"[3]; 700 mg twice daily oral, Day 1 cycle 1, n = 7",64.62 ± 34.70 I7h
same,CI7F,"[3]; 700 mg twice daily oral, Day 21 cycle 1, n = 2",149.9 ±51.79 I7h
same,24-hour urine excretion,"[4]; nonsymptomatic patients, mean (SD 2.8)",18.7 mg
same,24-hour urine excretion,"[4]; patients with urinary symptoms, mean (SD 7.9)",16.6 mg
